Values of other authors in patent publication US11136251B2, “Compositions, methods, and devices for capturing phosphate from water” (REGENTS OF THE UNIVERSITY OF MINNESOTA, priority 2017, dated 2021).

For `O=C([O-])CN(CCN(CC(=O)[O-])CC(=O)O)CCN(CC(=O)[O-])CC(=O)O.[Gd+3]` [Gd-DTPA], the “selectivity for HPO4^2− over HCO3^− / bicarbonate binding” value is listed as “two-fold”.
